Experimental data: patent US8877751B2, “Benzothiazolone derivatives” (Merck Patent GmbH, priority 2009, dated 2014)

target: T1, Met kinase (Homo sapiens, UniProt P08581); experiment: Met kinase inhibition (enzyme assay), flashplate method; type: biochemical
T1 construct: 6His (N); purchased Upstate 14-526; host or cells: Sf21 insect cells (S. frugiperda), baculovirus
Source text: According to the manufacturer's data (Met, active, Upstate, catalogue No. 14-526), Met kinase is expressed for the purposes of protein production in insect cells (Sf21; S. frugiperda) and subsequent affinity-chromatographic purification as “N-terminal 6His-tagged” recombinant human protein in a baculovirus expression vector.
Flashplate Method (Met Kinase)
The test plates used are 96-well Flashplate^R microtitre plates from Perkin Elmer (Cat. No. SMP200). The components of the kinase reaction described below are pipetted into the assay plate. The Met kinase and the substrate poly Ala-Glu-Lys-Tyr, (pAGLT, 6:2:5:1), are incubated for 3 hrs at room temperature with radioactively labelled ^33P-ATP in the presence and absence of test substances in a total volume of 100 μl. The reaction is terminated using 150 μl of a 60 mM EDTA solution. After incubation for a further 30 min at room temperature, the supernatants are filtered off with suction, and the wells are washed three times with 200 μl of 0.9% NaCl solution each time. The measurement of the bound radioactivity is carried out by means of a scintillation measuring instrument (Topcount NXT, Perkin-Elmer).
The full value used is the inhibitor-free kinase reaction. This should be approximately in the range 6000-9000 cpm. The pharmacological zero value used is staurosporin in a final concentration of 0.1 mM. The inhibitory values (IC50) are determined using the RS1_MTS program.
Kinase reaction conditions per well: • 30 μl of assay buffer • 10 μl of substance to be tested in assay buffer with 10% of DMSO • 10 μl of ATP (final concentration 1 μM cold, 0.35 μCi of ^33P-ATP) • 50 μl of Met kinase/substrate mixture in assay buffer; • (10 ng of enzyme/well, 50 ng of pAGLT/well)
Solutions Used: • Assay buffer: • 50 mM HEPES • 3 mM magnesium chloride • 3 μM sodium orthovanadate • 3 mM manganese(II) chloride • 1 mM dithiothreitol (DTT) • pH=7.5 (to be set using sodium hydroxide) • Stop solution: • 60 mM Titriplex III (EDTA) • ^33P-ATP: Perkin-Elmer; • Met kinase: Upstate, Cat. No. 14-526, Stock 1 μg/10 μl; spec. activity 954 U/mg; • Poly-Ala-Glu-Lys-Tyr, 6:2:5:1: Sigma Cat. No. P1152

T1 sequence (P08581 25-1390): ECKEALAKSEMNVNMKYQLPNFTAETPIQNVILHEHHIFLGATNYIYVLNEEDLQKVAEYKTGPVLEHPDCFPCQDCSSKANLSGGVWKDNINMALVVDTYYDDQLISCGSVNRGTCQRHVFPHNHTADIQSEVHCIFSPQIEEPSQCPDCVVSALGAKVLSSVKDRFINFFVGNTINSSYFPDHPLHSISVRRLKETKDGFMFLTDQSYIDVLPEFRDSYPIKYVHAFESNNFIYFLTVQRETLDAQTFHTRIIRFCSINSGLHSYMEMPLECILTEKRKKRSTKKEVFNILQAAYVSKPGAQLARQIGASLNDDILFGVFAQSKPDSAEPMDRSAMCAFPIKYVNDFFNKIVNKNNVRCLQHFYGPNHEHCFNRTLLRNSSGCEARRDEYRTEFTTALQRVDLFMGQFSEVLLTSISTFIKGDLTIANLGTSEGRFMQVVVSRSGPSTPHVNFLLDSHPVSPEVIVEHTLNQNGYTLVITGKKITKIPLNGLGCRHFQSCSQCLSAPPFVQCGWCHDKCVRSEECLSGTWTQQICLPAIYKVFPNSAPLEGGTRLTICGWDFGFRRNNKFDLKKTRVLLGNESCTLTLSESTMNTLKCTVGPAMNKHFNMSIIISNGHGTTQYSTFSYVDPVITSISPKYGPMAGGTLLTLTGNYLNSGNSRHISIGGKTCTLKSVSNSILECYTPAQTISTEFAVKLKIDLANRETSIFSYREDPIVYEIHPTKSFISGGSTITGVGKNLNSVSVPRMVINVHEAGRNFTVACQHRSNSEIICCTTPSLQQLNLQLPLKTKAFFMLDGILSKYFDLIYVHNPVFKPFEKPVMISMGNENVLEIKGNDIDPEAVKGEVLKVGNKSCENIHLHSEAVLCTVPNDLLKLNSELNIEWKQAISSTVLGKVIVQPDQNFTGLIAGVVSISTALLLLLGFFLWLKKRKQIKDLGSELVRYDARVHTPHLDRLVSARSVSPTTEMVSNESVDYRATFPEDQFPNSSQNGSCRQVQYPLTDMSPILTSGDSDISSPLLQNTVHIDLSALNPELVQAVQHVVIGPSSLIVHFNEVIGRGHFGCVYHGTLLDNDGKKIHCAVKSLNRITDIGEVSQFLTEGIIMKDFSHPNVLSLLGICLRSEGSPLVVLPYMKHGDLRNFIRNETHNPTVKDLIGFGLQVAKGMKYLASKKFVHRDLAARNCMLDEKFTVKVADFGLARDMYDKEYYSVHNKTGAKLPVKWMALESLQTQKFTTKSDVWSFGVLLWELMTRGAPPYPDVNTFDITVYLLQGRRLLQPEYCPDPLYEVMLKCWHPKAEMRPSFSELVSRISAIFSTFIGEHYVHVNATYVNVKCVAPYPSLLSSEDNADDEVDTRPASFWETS

IC50, 0.01 to 1 µM:
O=c1sc2ccc(C(F)(F)F)cc2n1Cc1cccc(-c2ncc(OCCN3CCOCC3)cn2)c1 [Compound A1, 3-{3-[5-(2-morpholin-4-ylethoxy)pyrimidin-2-yl]benzyl}-5-trifluoromethyl-3H-benzothiazol-2-one]
O=c1sc2ccc(Cl)cc2n1Cc1cccc(-c2ncc(OCCN3CCOCC3)cn2)c1 [Compound A2, 5-Chloro-3-{3-[5-(2-morpholin-4-ylethoxy)pyrimidin-2-yl]benzyl}-3H-benzothiazol-2-one]
CC(=O)c1ccc2c(c1)sc(=O)n2Cc1cccc(-c2ncc(OCCN3CCOCC3)cn2)c1 [Compound A3, 6-Acetyl-3-{3-[5-(2-morpholin-4-ylethoxy)pyrimidin-2-yl]benzyl}-3H-benzothiazol-2-one]
CCC(=O)c1ccc2c(c1)sc(=O)n2Cc1cccc(-c2ncc(OCCN3CCOCC3)cn2)c1 [Compound A3a, 3-{3-[5-(2-Morpholin-4-ylethoxy)pyrimidin-2-yl]benzyl}-6-propionyl-3H-benzothiazol-2-one]
O=c1sc2ccc(Br)cc2n1Cc1cccc(-c2ncc(OCCN3CCOCC3)cn2)c1 [Compound A4, 5-Bromo-3-{3-[5-(2-morpholin-4-ylethoxy)pyrimidin-2-yl]benzyl}-3H-benzothiazol-2-one]
CN(C)CCCOc1cnc(-c2cccc(Cn3c(=O)sc4ccc(C(F)(F)F)cc43)c2)nc1 [Compound A5, 3-{3-[5-(3-dimethylaminopropoxy)pyrimidin-2-yl]benzyl}-5-trifluoromethyl-3H-benzothiazol-2-one]
CN1CCC(COc2cnc(-c3cccc(Cn4c(=O)sc5ccc(C(F)(F)F)cc54)c3)nc2)CC1 [Compound A6, 3-{3-[5-(1-Methylpiperidin-4-ylmethoxy)pyrimidin-2-yl]benzyl}-5-trifluoromethyl-3H-benzothiazol-2-one]
CC(C)(C)OC(=O)N1CCC(COc2cnc(-c3cccc(Cn4c(=O)sc5ccc(C(F)(F)F)cc54)c3)nc2)CC1 [Compound A7, 3-{3-[5-(1-tert-Butoxycarbonylpiperidin-4-ylmethoxy)pyrimidin-2-yl]-benzyl}-5-trifluoromethyl-3H-benzothiazol-2-one]
O=c1sc2ccc(C(F)(F)F)cc2n1Cc1cccc(-c2ncc(OCC3CCNCC3)cn2)c1 [Compound A8, 3-{3-[5-(piperidin-4-ylmethoxy)pyrimidin-2-yl]benzyl}-5-trifluoromethyl-3H-benzothiazol-2-one]
O=c1sc2ccc(C(F)(F)F)cc2n1Cc1cccc(-c2ncc(-c3cnn(CCN4CCCC4)c3)cn2)c1 [Compound A9, 3-(3-{5-[1-(2-pyrrolidin-1-ylethyl)-1H-pyrazol-4-yl]pyrimidin-2-yl}benzyl)-5-trifluoromethyl-3H-benzothiazol-2-one]
Cn1cc(-c2ccc3sc(=O)n(Cc4cccc(-c5ncc(OCCN6CCOCC6)cn5)c4)c3c2)cn1 [Compound A10, 5-(1-methyl-1H-pyrazol-4-yl)-3-{3-[5-(2-morpholin-4-ylethoxy)pyrimidin-2-yl]benzyl}-3H-benzothiazol-2-one]
CN1CCN(c2cnc(-c3cccc(Cn4c(=O)sc5ccc(C(F)(F)F)cc54)c3)nc2)CC1 [Compound A11, 3-{3-[5-(4-methylpiperazin-1-yl)pyrimidin-2-yl]benzyl}-5-trifluoromethyl-3H-benzothiazol-2-one]
Cc1nc(-c2cccc(Cn3c(=O)sc4ccc(Cl)cc43)c2)no1 [Compound A12, 5-chloro-3-[3-(5-methyl-1,2,4-oxadiazol-3-yl)benzyl]-3H-benzothiazol-2-one]
CN1CCN(CCCOC(=O)Nc2cccc(Cn3c(=O)sc4ccc(Cl)cc43)c2)CC1 [Compound A13, 3-(4-methylpiperazin-1-yl)propyl [3-(5-chloro-2-oxobenzothiazol-3-ylmethyl)phenyl]carbamate]
CCOC(=O)Nc1cccc(Cn2c(=O)sc3ccc(Cl)cc32)c1 [Compound A14, ethyl [3-(5-chloro-2-oxobenzothiazol-3-ylmethyl)phenyl]carbamate]
